Earlier results as cited in patent US11033592B2, “Composition for the prevention and/or treatment of cardiovascular diseases” (priority 2016, dated 2021).

System: first occurrence of cardiovascular events
Conditions: CRESTOR 20 mg versus placebo, P<0.00001

Question: With `CC(C)c1nc(N(C)S(C)(=O)=O)nc(-c2ccc(F)cc2)c1/C=C/[C@@H](O)C[C@@H](O)CC(=O)O` [CRESTOR, rosuvastatin] as the molecule, how does the “relative reduction in risk of a major cardiovascular event” value read?
Answer: 44%
